42 compounds from patent publication US8492374B2, “Azaazulene compounds” (Industrial Technology Research Institute, priority 2009, dated 2013) can be followed below.

For test [1], the system named is MV4-11 (FLT3-ITD) cell line. Description: In vitro cell activity assay (MTT cell viability, 72 hours). The following applies: Homo sapiens, 72 hours at 37° C., 10,000 cells per well, read-out: IC50 against MV4-11. It counts as cell-based. The procedure: Human MV4-11 (FLT3-ITD) cell line was obtained from American Tissue Culture Collection (ATCC number: CRL-9591). The cell line was cultured with RPMI 1640 containing 10% fetal bovine serum, 1 mmol/L sodium pyruvate and 10 mmol/L HEPES (pH 7.4). The cell was grown and maintained in a humidified atmosphere at 37° C. and 5% carbon dioxide.
MV4-11 cell was plated in 96-well microtiter plates (10,000 cells per well) and serial dilutions of indicated compounds were added. At the end of the incubation period (72 hours at 37° C.), cell viability was determined by a tetrazolium dye, MTT (3-(4,5-dimethylthiazol-2-yl)-2,5-diphenyl tetrazolium bromide) (Promega, Madison, Wis.). The formazan crystals were dissolved by DMSO, and the absorbance at a wavelength of 600 nm was recorded using an ELISA plate reader. IC50 values were calculated using nonlinear regression and defined as the concentration needed for a 50% reduction in absorbance of treated versus untreated control cells.

For test [2], the target named is T1, FLT-3 kinase (Homo sapiens, UniProt P36888).
T1 construct: human FLT-3 (Arg571-Ser993); GST (N); purchased Cell Signaling Technology HTScan FLT-3 Kinase Assay Kit; host or cells: baculovirus expression system
T1 sequence (P36888 571-993): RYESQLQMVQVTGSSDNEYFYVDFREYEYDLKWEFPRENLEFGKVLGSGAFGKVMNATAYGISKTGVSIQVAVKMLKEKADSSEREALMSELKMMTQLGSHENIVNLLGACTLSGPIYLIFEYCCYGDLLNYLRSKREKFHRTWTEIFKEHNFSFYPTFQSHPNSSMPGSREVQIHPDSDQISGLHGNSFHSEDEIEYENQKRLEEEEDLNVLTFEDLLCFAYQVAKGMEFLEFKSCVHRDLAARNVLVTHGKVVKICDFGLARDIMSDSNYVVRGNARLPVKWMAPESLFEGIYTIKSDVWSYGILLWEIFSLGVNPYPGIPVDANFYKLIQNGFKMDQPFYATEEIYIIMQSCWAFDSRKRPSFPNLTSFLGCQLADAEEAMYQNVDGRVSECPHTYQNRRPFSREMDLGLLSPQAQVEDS
As to the kind of experiment: FLT-3 kinase DELFIA assay (HTScan FLT-3 Kinase Assay Kit). The following applies: 20 uM ATP; for inhibition at 0.1 µM: 0.1 uM compound; for inhibition at 1 µM: 1 uM compound. The test is classed as biochemical. The method, then: Azaazulene Compounds of this invention were treated for their efficacy in inhibiting activities of FLT-3, c-KIT and KDR kinases by biochemical DELFIA (Dissociation Enhanced Lanthanide FIA) assays according to the procedure described below. The assays were conducted by, Division of Cell Engineering, Biomedical Engineering Research Laboratories, Industrial Technology Research Institute, Bldg. 53, 195, sec. 4, Chung Hsing Rd. Chutung, Hsinchu, Taiwan 310, R.O.C.
The FLT-3 assay was conducted following the protocol described in Protocol for HTScang FLT-3 Kinase Assay Kit (Cell Signaling Technology®).

In the case of `O=c1[nH]c2cccccc-2c1-c1nc2cc(F)c(F)cc2[nH]1` [Compound B3], the IC50 in test [1] is 1000 to 5000 nM.
In the case of `O=c1[nH]c2cccccc-2c1-c1nc2cc(Cl)cnc2[nH]1` [Compound B10], the IC50 in test [1] is 1000 to 5000 nM. In test [2], this compound came in with an inhibition at 0.1 µM of 8.9% and an inhibition at 1 µM of 20.3%.
In the case of `O=c1[nH]c2cccccc-2c1-c1cn2cccnc2n1` [Compound B12], the IC50 in test [1] is more than 5000 nM. In test [2], this compound displayed an inhibition at 0.1 µM of 4.5% and an inhibition at 1 µM of 1.6%.
For `O=c1[nH]c2cccccc-2c1-c1cn2ccc(Cl)cc2n1` [Compound B16], in that order: more than 5000 nM, 4.8% and 16.5%.
As for `O=c1[nH]c2cccccc-2c1-c1cn2cc(Br)ccc2n1` [Compound B17], in test [1], the IC50 is 1000 to 5000 nM. In test [2], this compound had an inhibition at 0.1 µM of 4.9% and an inhibition at 1 µM of 23.4%.
For `O=c1[nH]c2cccccc-2c1-c1nc2cc3ccccc3cc2[nH]1` [Compound B18], in test [2], the inhibition at 0.1 µM stood at 16.4% and the inhibition at 1 µM turned out to be 40.2%.
Take `N#Cc1ccc2[nH]c(-c3c4cccccc-4[nH]c3=O)nc2c1` [Compound B19]: in test [1], the IC50 fell in the range of 1000 to 5000 nM. Also, in test [2], at 0.1 µM the inhibition was 14.7% and at 1 µM the inhibition was 28.6%.
As for `CC(C)(C)OC(=O)Nc1ccc2[nH]c(-c3c4cccccc-4[nH]c3=O)nc2c1` [Compound B20], the IC50 in test [1] lay in the range of 1000 to 5000 nM. Besides, in test [2], the inhibition at 0.1 µM came out at 16.7% and 1 µM produced 33.3% inhibition.
On to `O=c1[nH]c2cccccc-2c1-c1nc2cc(N3CCNCC3)ccc2[nH]1` [Compound B22], for which the IC50 in test [1] came out at 42.9 nM. Besides, in test [2], testing at 0.1 µM gave an inhibition of 29.1% and the inhibition at 1 µM turned out to be 83.9%.
For `O=c1[nH]c2cccccc-2c1-c1nc2cc(N3CCNCC3)ccc2n1CC(F)(F)F` [Compound B23], in that order: 34.4 nM, 41.2% and 91.5%.
Take `CC1CN(c2ccc3[nH]c(-c4c5cccccc-5[nH]c4=O)nc3c2)CC(C)N1` (centres unmarked) [Compound B24]: in test [1], the IC50 was 75 nM. Besides, in test [2], the inhibition at 0.1 µM worked out at 19.1% and the inhibition at 1 µM was 71.5%.
As for `CN1CCN(c2ccc3[nH]c(-c4c5cccccc-5[nH]c4=O)nc3n2)CC1` [Compound B27], the IC50 in test [1] came to 375 nM.
The same measure, in the same setting: for `CCN1CCN(c2ccc3[nH]c(-c4c5cccccc-5[nH]c4=O)nc3c2)CC1` [Compound B28] the value was 96.3 nM.
For the compound `CCN(CC)CCCCn1c2cccccc-2c(-c2nc3cc(N4CCN(C)CC4)ccc3[nH]2)c1=O` [Compound B32], in test [1], the IC50 was 1000 to 5000 nM. In test [2], this compound gave an inhibition at 0.1 µM of 8% and an inhibition at 1 µM of 8.1%.
For `CN(C)CCCN1CCN(c2ccc3[nH]c(-c4c5cccccc-5[nH]c4=O)nc3c2)CC1` [Compound B33], in that order: 54.2 nM, 58.7% and 96.6%.
In the case of `CCCCN(CCCC)CCN1CCN(c2ccc3[nH]c(-c4c5cccccc-5[nH]c4=O)nc3c2)CC1` [Compound B34], the IC50 in test [1] is 151 nM. Also, in test [2], testing at 0.1 µM gave an inhibition of 40.2% and the inhibition at 1 µM is 85.4%.
In the same order, the values of `CN1CCC(N2CCN(c3ccc4[nH]c(-c5c6cccccc-6[nH]c5=O)nc4c3)CC2)CC1` [Compound B35] are 159 nM, 42% and 86.7%.
For `O=c1[nH]c2cccccc-2c1-c1nc2cc(N3CCN(CCO)CC3)ccc2[nH]1` [Compound B36], in that order: 151 nM, 24.8% and 64%.
`O=c1[nH]c2cccccc-2c1-c1nc2cc(N3CCN(CCF)CC3)ccc2[nH]1` [Compound B38]: the IC50 in test [1] came to 118 nM. For the same compound, in test [2], the inhibition at 0.1 µM was found to be 21.8% and 1 µM produced 69.2% inhibition.
As to `O=c1[nH]c2cccccc-2c1-c1nc2cc(N3CCN(CCCF)CC3)ccc2[nH]1` [Compound B39], in test [1], the IC50 worked out at 62.2 nM. In test [2], at 0.1 µM the inhibition was 24.3% and the inhibition at 1 µM was found to be 78.6%.
Take `O=c1[nH]c2cccccc-2c1-c1nc2cc(N3CCN(C[C@@H](O)CO)CC3)ccc2[nH]1` [Compound B40]: the concentration for half-maximal inhibition (IC50) in test [1] was 72.3 nM. In test [2], 0.1 µM produced 38.2% inhibition and 1 µM produced 88.1% inhibition.
Turning to `O=c1[nH]c2cccccc-2c1-c1nc2cc(N3CCN(Cc4ccc5ccccc5c4)CC3)ccc2[nH]1` [Compound B43], in test [1], the IC50 was 1000 to 5000 nM. For the same compound, in test [2], the inhibition at 0.1 µM amounted to 33.5% and the inhibition at 1 µM amounted to 67.2%.
For the compound `O=c1[nH]c2cccccc-2c1-c1nc2cc(N3CCN(Cc4ccccc4)CC3)ccc2[nH]1` [Compound B44], the half-inhibitory concentration (IC50) in test [1] came to 190 nM. For the same compound, in test [2], at 0.1 µM the inhibition was 29% and the inhibition at 1 µM came out at 79.1%.
Consider `CN(C)c1ccc(CN2CCN(c3ccc4[nH]c(-c5c6cccccc-6[nH]c5=O)nc4c3)CC2)cc1` [Compound B45], for which the IC50 in test [1] stood at 318 nM. In test [2], this compound yielded an inhibition at 0.1 µM of 27.3% and an inhibition at 1 µM of 77%.
Turning to `O=c1[nH]c2cccccc-2c1-c1nc2cc(N3CCN(Cc4ccc(Br)o4)CC3)ccc2[nH]1` [Compound B46], the IC50 in test [1] stood at 314 nM. In test [2], this compound came in with an inhibition at 0.1 µM of 27.4% and an inhibition at 1 µM of 79.2%.
On to `O=c1[nH]c2cccccc-2c1-c1nc2cc(N3CCN(Cc4ccncc4)CC3)ccc2[nH]1` [Compound B47], for which the IC50 in test [1] turned out to be 300 nM.
`O=c1[nH]c2cccccc-2c1-c1nc2cc(N3CCN(Cc4cccnc4)CC3)ccc2[nH]1` [Compound B48]: the IC50 in test [1] was determined as 148 nM.
In the case of `O=c1[nH]c2cccccc-2c1-c1nc2cc(N3CCN(Cc4ccccn4)CC3)ccc2[nH]1` [Compound B49], in test [1], the IC50 was 249 nM. In addition, in test [2], the inhibition at 0.1 µM is 21.9% and the inhibition at 1 µM was determined as 72.2%.
On to `CN1CCN(c2cc3nc(-c4c5cccccc-5[nH]c4=O)[nH]c3cc2F)CC1` [Compound B50], for which, in test [1], the IC50 came to 50.7 nM. In test [2], this compound registered an inhibition at 0.1 µM of 25.1% and an inhibition at 1 µM of 79.6%.
For the compound `CN1CCCN(c2c(F)cc3[nH]c(-c4c5cccccc-5[nH]c4=O)nc3c2F)CC1` [Compound B86], in test [1], the IC50 came out at 253 nM.
In test [2], `O=c1[nH]c2cccccc-2c1-c1nc2cc(N3CCC(O)CC3)ccc2[nH]1` [Compound B107] yielded an inhibition at 0.1 µM of 42.5% and an inhibition at 1 µM of 92.9%.
In test [2], `CN(C)[C@@H]1CCN(c2ccc3[nH]c(-c4c5cccccc-5[nH]c4=O)nc3c2)C1` [Compound B110] gave an inhibition at 0.1 µM of 36.5% and an inhibition at 1 µM of 84.9%.
As to `O=c1[nH]c2cccccc-2c1-c1nc2cc(-n3nccn3)ccc2[nH]1` [Compound B116], in test [2], the inhibition at 0.1 µM came to 36.3% and the inhibition at 1 µM came to 62.7%.
On to `O=C(Nc1ccccc1)Nc1ccc2[nH]c(-c3c4cccccc-4[nH]c3=O)nc2c1` [Compound B121], for which the half-maximal inhibitory concentration (IC50) in test [1] was in the range of 100 to 500 nM.
In the case of `O=C(Nc1ccc2[nH]c(-c3c4cccccc-4[nH]c3=O)nc2c1)Nc1c(Cl)cncc1Cl` [Compound B122], the 50% inhibitory concentration (IC50) in test [1] is more than 5000 nM.
With `CCc1cccc(C)c1NC(=O)Nc1ccc2[nH]c(-c3c4cccccc-4[nH]c3=O)nc2c1` [Compound B123], the IC50 in test [1] lay in the range of 1000 to 5000 nM.
Regarding `O=C(Nc1ccc2[nH]c(-c3c4cccccc-4[nH]c3=O)nc2c1)NC1CCCCC1` [Compound B124], the half-maximal inhibitory concentration (IC50) in test [1] was approximately 5000 nM.
On to `O=C(Nc1ccc2[nH]c(-c3c4cccccc-4[nH]c3=O)nc2c1)Nc1ccccc1F` [Compound B125], for which, in test [1], the IC50 was 680 nM.
As to `O=C(Nc1cccc(F)c1)Nc1ccc2[nH]c(-c3c4cccccc-4[nH]c3=O)nc2c1` [Compound B126], in test [1], the IC50 is more than 5000 nM.
For `O=C(Nc1ccc(F)cc1)Nc1ccc2[nH]c(-c3c4cccccc-4[nH]c3=O)nc2c1` [Compound B127], the IC50 in test [1] is approximately 1000 nM.
Consider `O=C(Nc1ccc2[nH]c(-c3c4cccccc-4[nH]c3=O)nc2c1)Nc1ccc(F)cc1F` [Compound B128], for which the IC50 in test [1] lay in the range of 1000 to 5000 nM.
On to `O=C(Nc1ccc2[nH]c(-c3c4cccccc-4[nH]c3=O)nc2c1)Nc1c(F)cccc1F` [Compound B129], for which the 50% inhibitory concentration (IC50) in test [1] is more than 5000 nM.

What is called IC50 is the concentration needed to halve the response being measured. By inhibition is commonly meant the percentage by which the read-out fell short of the control.
